For the molecule `C=C(C)C(=O)OCCC[Si](OC)(OC)OC` [3-Methacryloxypropyltrimethoxysilane], the flash point turned out to be 92.00 °C. Molecule `C=CC=CC[Si](C)(C)C` [(2,4-Pentadienyl)trimethylsilane] showed a flash point of 18.00 °C.

In the case of `C[Si](C)(C)OC1=CCCC1` [(Cyclopentenyloxy)trimethylsilane], the flash point worked out at 38.00 °C. Take `CCN(CC)[Si](C)(C)C` [(Diethylamino)trimethylsilane]: the flash point worked out at 10.00 °C. On the same count and under the same terms, with `CO[Si](CCCNCCN)(OC)OC` [Aminoethylaminopropyltrimethoxysilane] the figure was 96.00 °C; with `C[Si](C)(C)Cc1ccccc1` [Benzyltrimethylsilane], 62.00 °C; with `CCN(CC)[Si](C)(C)N(CC)CC` [Bis(diethylamino)dimethylsilane], 35.00 °C. For `C[Si](C)(Cl)CCC(F)(F)F` [Chlorodimethyl(3,3,3-trifluoropropyl) silane], the flash point came to 20.00 °C. `C[Si](C)(Cl)CCl` [Chloromethyldimethylchlorosilane] registered a flash point of 22.00 °C. On the same count and under the same terms, with `Cl[Si](Cl)(Cl)C1CCCCC1` [Cyclohexyltrichlorosilane] the figure was 85.00 °C; with `C[Si](C)(C)C1C=CC=C1` [Cyclopentadienyltrimethylsilane], 29.00 °C. Molecule `C[Si]1(C)O[Si](C)(C)O[Si](C)(C)O[Si](C)(C)O[Si](C)(C)O1` [Decamethylcyclopentasiloxane] gave a flash point of 77.00 °C. Regarding `CCO[Si](CC)(CC)OCC` [Diethyldiethoxysilane], the flash point came to 43.00 °C. As to `CO[Si](C)(C)OC` [Dimethyldimethoxysilane], the flash point is -8.00 °C. In the case of `Cl[Si](Cl)(c1ccccc1)c1ccccc1` [Diphenyldichlorosilane], the flash point was found to be 142.00 °C. As to `CO[Si](OC)(c1ccccc1)c1ccccc1` [Diphenyldimethoxysilane], the flash point was found to be 121.00 °C.

The molecule `c1ccc([SiH2]c2ccccc2)cc1` [Diphenylsilane] came in with a flash point of 98.00 °C. As to `C[Si]1(C)O[Si](C)(C)O[Si](C)(C)O[Si](C)(C)O[Si](C)(C)O[Si](C)(C)O1` [Dodecamethylcyclohexasiloxane], the flash point was 93.00 °C. Still for that read-out and setting: with `C[Si](C)(C)O[Si](C)(C)O[Si](C)(C)O[Si](C)(C)O[Si](C)(C)C` [Dodecamethylpentasiloxane] the figure was 79.00 °C.

Molecule `CC[Si](C)(C)Cl` [Ethyldimethylchlorosilane] yielded a flash point of -4.00 °C.

`CC[SiH3]` [Ethylsilane] had a flash point of -60.00 °C. The same measure, in the same setting: as for `CCCCCCCCCCCCCCCC[Si](Cl)(Cl)Cl` [Hexadecyltrichlorosilane], the figure is 154.00 °C; as for `CC[Si](CC)(CC)O[Si](CC)(CC)CC` [Hexaethyldisiloxane], 76.00 °C. The same measure, in the same setting: with `C[Si]1(C)O[Si](C)(C)O[Si](C)(C)O1` [Hexamethylcyclotrisiloxane] the figure was 32.00 °C; with `C[Si](C)(C)N[Si](C)(C)C` [Hexamethyldisilazane], 8.00 °C; with `C[Si](C)(C)S[Si](C)(C)C` [Hexamethyldisilthiane], 26.00 °C.

In turn, `CC(C)C[Si](Cl)(Cl)Cl` [Isobutyltrichlorosilane] registered a flash point of 37.00 °C. Molecule `CCO[Si](C)(OCC)OCC` [Methyltriethoxysilane] had a flash point of 24.00 °C.

In turn, `C[Si](C)(C)N1CCOCC1` [N-(Trimethylsilyl)morpholine] yielded a flash point of 27.00 °C. `C[Si]1(C)N[Si](C)(C)N[Si](C)(C)N[Si](C)(C)N1` [Octamethylcyclotetrasilazane]: the flash point is 66.00 °C. The same measure, in the same setting: as for `CCCCCCCC[Si](OCC)(OCC)OCC` [Octyltriethoxysilane], the figure is 100.00 °C; as for `C[SiH](C)O[Si](C)(C)C` [Pentamethyldisiloxane], -19.00 °C. `C[SiH](C)c1ccccc1` [Phenyldimethylsilane] had a flash point of 38.00 °C. For the molecule `[SiH3]c1ccccc1` [Phenylsilane], the flash point was 8.00 °C. `CO[Si](OC)(OC)c1ccccc1` [Phenyltrimethoxysilane] displayed a flash point of 85.00 °C. `C#CCO[Si](C)(C)C` [Propargyloxytrimethylsilane]: the flash point was found to be 27.00 °C. On the same count and under the same terms, as for `CCC[Si](O[SiH](C)C)(O[SiH](C)C)O[SiH](C)C` [Propyltris(dimethylsiloxy)silane], the figure is 50.00 °C; as for `O=C=N[Si](N=C=O)(N=C=O)N=C=O` [Tetraisocyanatosilane], 50.00 °C; as for `C[SiH](C)O[Si](O[SiH](C)C)(O[SiH](C)C)O[SiH](C)C` [Tetrakisdimethylsiloxysilane], 67.00 °C. Still for that read-out and setting: with `CCC[SiH](CCC)CCC` [Tri-n-propylsilane] the figure was 43.00 °C; with `Cl[Si](Cl)(Cl)CCc1ccccc1` [Trichloro(2-phenylethyl)silane], 91.00 °C; with `N#CCCC[Si](Cl)(Cl)Cl` [Trichloro(3-cyanopropyl) Silane], 92.00 °C. Still for that read-out and setting: as for `ClC[Si](Cl)(Cl)Cl` [Trichloro(Chloromethyl) silane], the figure is 69.00 °C. Molecule `CC[SiH](CC)CC` [Triethylsilane] displayed a flash point of -3.00 °C. `C=CO[Si](C)(C)C` [Trimethyl(vinyloxy)silane] displayed a flash point of -10.00 °C. On the same count and under the same terms, as for `CCCO[Si](C)(C)C` [Trimethyl-n-propoxysilane], the figure is 10.00 °C; as for `C[Si](C)(C)F` [Trimethylfluorosilane], -35.00 °C; as for `C=C[Si](C)(C)O[Si](C)(C)C` [Vinylpentamethyldisiloxane], 12.00 °C. Still for that read-out and setting: as for `C=C[Si](OC)(OC)OC` [Vinyltrimethoxysilane], the figure is 23.00 °C; as for `C=C[Si](OCCOC)(OCCOC)OCCOC` [Vinyltris(methoxyethoxy)silane], 80.00 °C; as for `CCCCCCCCCC[Si](C)(Cl)Cl` [n-Decylmethyldichlorosilane], 120.00 °C. Still for that read-out and setting: with `CCCCCCCCCCCC[Si](C)(Cl)Cl` [n-Dodecylmethyldichlorosilane] the figure was 143.00 °C; with `CCCCCCCCCCCC[Si](Cl)(Cl)Cl` [n-Dodecyltrichlorosilane], 162.00 °C. `CCCCCC[Si](C)(Cl)Cl` [n-Hexylmethyldichlorosilane] showed a flash point of 85.00 °C.

Turning to `CCCCCC[Si](Cl)(Cl)Cl` [n-Hexyltrichlorosilane], the flash point turned out to be 85.00 °C. `CCCCCCCC[Si](C)(C)Cl` [n-Octyldimethylchlorosilane] yielded a flash point of 97.00 °C. Same read-out and setting: with `CCCCCCCC[Si](Cl)(Cl)Cl` [n-Octyltrichlorosilane] the figure was 96.00 °C; with `CCC[Si](C)(Cl)Cl` [n-Propylmethyldichlorosilane], 27.00 °C; with `C[Si](C)(C)c1ccc(Cl)cc1` [p-Chlorophenyltrimethylsilane], 49.00 °C. Still for that read-out and setting: with `CC(C)(C)O[Si](C)(C)C` [t-Butoxytrimethylsilane] the figure was 14.00 °C; with `CC(C)(C)[Si](C)(C)Cl` [t-Butyldimethylchlorosilane], 22.00 °C. On the same count and under the same terms, with `C[SiH](C)C(C)(C)C` [t-Butyldimethylsilane] the figure was -22.00 °C. Consider `CC(C)(C)[Si](C)(C)O` [t-Butyldimethylsilanol], for which the flash point is 45.00 °C.

The source holds these as a separate data set.
`C[C@H]1CCC[C@H](C)C1` (relative stereo) [trans-1,3-dimethylcyclohexane] came in with a flash point of 8 °C.

The molecule `CC1(C)CCCC1` [1,1-dimethylcyclopentane] showed a flash point of -16 °C. In turn, `C=CCC=CC` [1,4-hexadiene] yielded a flash point of -25 °C. Same read-out and setting: as for `CCc1ccccc1C(C)C` [1-ethyl-2-isopropylbenzene], the figure is 58 °C; as for `CCCC(C)(C)C(C)(C)C` [2,2,3,3-tetramethylhexane], 31 °C. On the same count and under the same terms, with `CC(C)(C)CCC(C)(C)C` [2,2,5,5-tetramethylhexane] the figure was 16 °C; with `CC(C)C(C)(C)C(C)C` [2,3,3,4-tetramethylpentane], 11 °C; with `C=C(C)C(C)(C)C` [2,3,3-trimethyl-1-butene], -17 °C.

Consider `C=C(C)C(C)CC` (configuration not stated) [2,3-dimethyl-1-pentene], for which the flash point is -17 °C.

Molecule `CCC(C)CCCC(C)C` (configuration not stated) [2,6-dimethyloctane] displayed a flash point of 34 °C. Still for that read-out and setting: with `C=C(CC)CCC` [2-ethyl-1-pentene] the figure was -10 °C. Take `C#CC(C)(C)C` [3,3-dimethyl-1-butyne]: the flash point was -34 °C. On the same count and under the same terms, as for `CCC(CC)C(C)C` [3-ethyl-2-methylpentane], the figure is 3 °C; as for `CCC(CC)CC` [3-ethylpentane], -12 °C. Still for that read-out and setting: with `CCCCCCC(C)CC` (configuration not stated) [3-methylnonane] the figure was 41 °C. `C=CCC(C)(C)C` [4,4-dimethyl-1-pentene] registered a flash point of -12 °C. For `CC#CC(C)(C)C` [4,4-dimethyl-2-pentyne], the flash point is -10 °C. Take `C=CCC(C)CC` (configuration not stated) [4-methyl-1-hexene]: the flash point was -15 °C. The molecule `C#CCC(C)C` [4-methyl-1-pentyne] yielded a flash point of -24 °C.

`CCCCC(C)CCC` (configuration not stated) [4-methyloctane] had a flash point of 22 °C. In the case of `C=CCCC(C)C` [5-methyl-1-hexene], the flash point is -10 °C.

`C#CCCC(C)C` [5-methyl-1-hexyne] displayed a flash point of -4 °C. On the same count and under the same terms, with `C=CCCCCC(C)C` [7-methyl-1-octene] the figure was 18 °C; with `C[C@@H]1CCC[C@@H]1C` [cis-1,2-dimethylcyclopentane], -4 °C.

The record behind these values is a flash point compilation (Sun et al. 2020).
